Data on 3 molecules can be found in ChEMBL document CHEMBL3045698, “Structure and synthesis of a potent glutamate receptor antagonist in wasp venom” (Proc Natl Acad Sci U S A, 1988).

A word on the inhibition: it is the percentage by which the read-out fell short of the control.

Experiment [1] has as its system Schistocerca gregaria. As to the kind of experiment: Inhibition of quisqualate-sensitive glutamate receptor in Schistocerca gregaria (desert locust) muscle assessed as reduction in neurally-evoked teitch contraction of locust metathoracic retractor unguis muscle at 0.1 Hz to 0.6 Hz stimulation frequency at 25 uM.
The test system of experiment [2] is Schistocerca gregaria. Kind of experiment: Inhibition of quisqualate-sensitive glutamate receptor in Schistocerca gregaria (desert locust) muscle assessed as reduction in glutamate-evoked teitch contraction of locust metathoracic retractor unguis muscle at 0.1 Hz to 0.6 Hz stimulation frequency at 10 uM.

Each structure is given as a SMILES string. Active and inactive are the calls of the source. The calls are words filed in the database; no cut-off is given here. Where only a bound is given, the exact number is not on record here.

Regarding `CCCC(=O)N[C@@H](Cc1ccc(O)cc1)C(=O)NCCCNCCCNCCCCN`, the inhibition entry in the experiment with Schistocerca gregaria [1] is “Active”.
For `CCCC(=O)N[C@@H](Cc1ccc(O)cc1)C(=O)NCCCCNCCCNCCCN`, the inhibition result in the experiment with Schistocerca gregaria [1] is “Active”. The inhibition in the experiment on Schistocerca gregaria [2] was greater than 90%.
With `CCCC(=O)N[C@@H](Cc1ccc(O)cc1)C(=O)NCCCNCCCCNCCCN`, the inhibition result in the experiment on Schistocerca gregaria [1] is “Active”.
